Measured values reported in patent US7700592B2, “α2C adrenoreceptor agonists” (Schering Corporation, priority 2005, dated 2010).

Each compound was assayed against T1, α2C receptor (Homo sapiens, UniProt P18825) (assay: GTPγS assay, efficacy agonist activity (Emax) for α2C). Conditions: active agonist = efficacy at α2C ≧30% Emax; functionally selective = additionally efficacy at α2A ≦30% Emax (GTPγS assay).
T1 sequence (P18825 1-462): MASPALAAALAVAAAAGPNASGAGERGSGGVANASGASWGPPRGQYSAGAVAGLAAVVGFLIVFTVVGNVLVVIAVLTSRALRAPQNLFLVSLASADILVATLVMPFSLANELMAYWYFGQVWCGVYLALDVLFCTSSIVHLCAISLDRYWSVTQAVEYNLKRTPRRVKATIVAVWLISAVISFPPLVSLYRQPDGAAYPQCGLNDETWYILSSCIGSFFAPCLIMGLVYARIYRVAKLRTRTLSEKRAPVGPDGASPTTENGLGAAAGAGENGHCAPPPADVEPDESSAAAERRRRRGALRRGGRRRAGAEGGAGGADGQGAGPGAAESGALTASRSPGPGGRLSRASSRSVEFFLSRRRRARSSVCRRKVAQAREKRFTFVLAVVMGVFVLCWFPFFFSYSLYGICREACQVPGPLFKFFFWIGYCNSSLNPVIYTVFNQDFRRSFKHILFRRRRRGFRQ
Format: biochemical
Description: For the purposes of this present invention, a compound is defined to be an active agonist of the α2C receptor subtype if the compound's efficacy at the α2C receptor is ≧30% Emax (GTPγS assay). A compound is a functionally selective agonist of the α2C receptor subtype over the α2A receptor subtype if the compound's efficacy at the α2C receptor is ≧30% Emax (GTPγS assay) and its efficacy at the α2A receptor is ≦30% Emax (GTPγS assay).
Efficacy agonist activity values (Emax, GTPγS assay) for α2C were determined by following the general procedure detailed by Umland et al (“Receptor reserve analysis of the human α2c-adrenoceptor using [^35S]GTPγS and cAMP functional assays” European Journal of Pharmacology 2001, 411, 211-221). For the purposes of the present invention, a compound is defined to be an active agonist of the α2C receptor subtype if the compound's efficacy at the α2C receptor is ≧30% Emax (GTPγS assay). A compound is a functionally selective agonist of the α2C receptor subtype over the α2A receptor subtype if the compound's efficacy at the α2C receptor is […] Emax (GTPγS assay) and its efficacy at the α2A receptor is ≦30% Emax (GTPγS assay).
For `CCN(C(=O)OCCOC)c1ccc2c(c1)N(Cc1c[nH]cn1)CCO2` [Compound 160], the “Efficacy agonist activity (Emax, GTPγS assay) for α2C: evaluated as active or functionally selective agonist” value was “active or functionally selective agonists of the α2C receptor subtype”. `CC#CCOC(=O)N(CC)c1ccc2c(c1)N(Cc1c[nH]cn1)CCO2` [Compound 162] was tested, and the “Efficacy agonist activity (Emax, GTPγS assay) for α2C: evaluated as active or functionally selective agonist” value was “active or functionally selective agonists of the α2C receptor subtype”. `CCN(C(=O)COC)c1ccc2c(c1)N(Cc1c[nH]cn1)CCO2` [Compound 163] was tested, and the “Efficacy agonist activity (Emax, GTPγS assay) for α2C: evaluated as active or functionally selective agonist” value was “active or functionally selective agonists of the α2C receptor subtype”. In the case of `CCN(C(=O)CCOC)c1ccc2c(c1)N(Cc1c[nH]cn1)CCO2` [Compound 164], the “Efficacy agonist activity (Emax, GTPγS assay) for α2C: evaluated as active or functionally selective agonist” value is reported as “active or functionally selective agonists of the α2C receptor subtype”. For `CCN(C(=O)COCCOC)c1ccc2c(c1)N(Cc1c[nH]cn1)CCO2` [Compound 165], the “Efficacy agonist activity (Emax, GTPγS assay) for α2C: evaluated as active or functionally selective agonist” value was “active or functionally selective agonists of the α2C receptor subtype”. In the case of `CCN(C(=O)CCCc1ccccc1)c1ccc2c(c1)N(Cc1c[nH]cn1)CCO2` [Compound 167], the “Efficacy agonist activity (Emax, GTPγS assay) for α2C: evaluated as active or functionally selective agonist” value is reported as “active or functionally selective agonists of the α2C receptor subtype”. With `CNC(=O)N(C)c1ccc2c(c1)N(C(C#N)c1c[nH]cn1)CCO2` (stereo not shown) [Compound 168] the “Efficacy agonist activity (Emax, GTPγS assay) for α2C: evaluated as active or functionally selective agonist” value was “active or functionally selective agonists of the α2C receptor subtype”. In the case of `CCN(C(=O)NC)c1ccc2c(c1)N(C(C#N)c1c[nH]cn1)CCO2` (stereo not shown) [Compound 169], the “Efficacy agonist activity (Emax, GTPγS assay) for α2C: evaluated as active or functionally selective agonist” value is reported as “active or functionally selective agonists of the α2C receptor subtype”. In the case of `COC(=O)Nc1ccc2c(c1)N(C(C#N)c1c[nH]cn1)CCO2` (stereo not shown) [Compound 171], the “Efficacy agonist activity (Emax, GTPγS assay) for α2C: evaluated as active or functionally selective agonist” value is reported as “active or functionally selective agonists of the α2C receptor subtype”. For `CCN(C(=O)OC)c1cc(F)c2c(c1)N(Cc1c[nH]cn1)CCO2` [Compound 178], the “Efficacy agonist activity (Emax, GTPγS assay) for α2C: evaluated as active or functionally selective agonist” value was “active or functionally selective agonists of the α2C receptor subtype”. With `COC(=O)Nc1cc(F)c2c(c1)N(C(C#N)c1c[nH]cn1)CCO2` (stereo not shown) [Compound 181] the “Efficacy agonist activity (Emax, GTPγS assay) for α2C: evaluated as active or functionally selective agonist” value was “active or functionally selective agonists of the α2C receptor subtype”. In the case of `CNC(=O)N(C)c1ccc2c(c1)N(Cc1c[nH]cn1)CCCO2` [Compound 223], the “Efficacy agonist activity (Emax, GTPγS assay) for α2C: evaluated as active or functionally selective agonist” value is reported as “active or functionally selective agonists of the α2C receptor subtype”. For `COCCOC(=O)N(C)c1ccc2c(n1)N(Cc1c[nH]cn1)CCO2` [Compound 231], the “Efficacy agonist activity (Emax, GTPγS assay) for α2C: evaluated as active or functionally selective agonist” value was “active or functionally selective agonists of the α2C receptor subtype”. With `CNC(=O)N(C)c1cc(Cl)c2c(c1)N(Cc1c[nH]cn1)CCO2` [Compound 232] the “Efficacy agonist activity (Emax, GTPγS assay) for α2C: evaluated as active or functionally selective agonist” value was “active or functionally selective agonists of the α2C receptor subtype”. For `CONC(=O)N(C)c1cc(Cl)c2c(c1)N(Cc1c[nH]cn1)CCO2` [Compound 235], the “Efficacy agonist activity (Emax, GTPγS assay) for α2C: evaluated as active or functionally selective agonist” value was “active or functionally selective agonists of the α2C receptor subtype”. `CCN(C(=O)NC)c1cc(Cl)c2c(c1)N(Cc1c[nH]cn1)CCO2` [Compound 236] was tested, and the “Efficacy agonist activity (Emax, GTPγS assay) for α2C: evaluated as active or functionally selective agonist” value was “active or functionally selective agonists of the α2C receptor subtype”. `CCCN(C(=O)NC)c1ccc2c(c1)N(Cc1c[nH]cn1)CCO2` [Compound 238] was tested, and the “Efficacy agonist activity (Emax, GTPγS assay) for α2C: evaluated as active or functionally selective agonist” value was “active or functionally selective agonists of the α2C receptor subtype”. For `CNC(=O)N(C)c1cc(C)c2c(c1)N(Cc1c[nH]cn1)CCO2` [Compound 239], the “Efficacy agonist activity (Emax, GTPγS assay) for α2C: evaluated as active or functionally selective agonist” value was “active or functionally selective agonists of the α2C receptor subtype”. For `COC(=O)N(C)c1cc(C)c2c(c1)N(Cc1c[nH]cn1)CCO2` [Compound 240], the “Efficacy agonist activity (Emax, GTPγS assay) for α2C: evaluated as active or functionally selective agonist” value was “active or functionally selective agonists of the α2C receptor subtype”. For `COCC(=O)N(C)c1ccc2c(c1)N(Cc1c[nH]cn1)CCO2` [Compound 242], the “Efficacy agonist activity (Emax, GTPγS assay) for α2C: evaluated as active or functionally selective agonist” value was “active or functionally selective agonists of the α2C receptor subtype”. `CONC(=O)N(C)c1ccc2c(c1)N(Cc1c[nH]cn1)CCO2` [Compound 243] was tested, and the “Efficacy agonist activity (Emax, GTPγS assay) for α2C: evaluated as active or functionally selective agonist” value was “active or functionally selective agonists of the α2C receptor subtype”. `CCN(C(=O)NOC)c1ccc2c(c1)N(Cc1c[nH]cn1)CCO2` [Compound 244] was tested, and the “Efficacy agonist activity (Emax, GTPγS assay) for α2C: evaluated as active or functionally selective agonist” value was “active or functionally selective agonists of the α2C receptor subtype”. In the case of `CCNC(=O)N(CC)c1ccc2c(c1)N(Cc1c[nH]cn1)CCO2` [Compound 245], the “Efficacy agonist activity (Emax, GTPγS assay) for α2C: evaluated as active or functionally selective agonist” value is reported as “active or functionally selective agonists of the α2C receptor subtype”. For `COCCCOC(=O)Nc1ccc2c(c1)N(Cc1c[nH]cn1)CCO2` [Compound 246], the “Efficacy agonist activity (Emax, GTPγS assay) for α2C: evaluated as active or functionally selective agonist” value was “active or functionally selective agonists of the α2C receptor subtype”. `N#CCCOC(=O)Nc1ccc2c(c1)N(Cc1c[nH]cn1)CCO2` [Compound 247] was tested, and the “Efficacy agonist activity (Emax, GTPγS assay) for α2C: evaluated as active or functionally selective agonist” value was “active or functionally selective agonists of the α2C receptor subtype”. In the case of `N#Cc1ccc(COC(=O)Nc2ccc3c(c2)N(Cc2c[nH]cn2)CCO3)cc1` [Compound 248], the “Efficacy agonist activity (Emax, GTPγS assay) for α2C: evaluated as active or functionally selective agonist” value is reported as “active or functionally selective agonists of the α2C receptor subtype”. In the case of `CSCCOC(=O)Nc1ccc2c(c1)N(Cc1c[nH]cn1)CCO2` [Compound 249], the “Efficacy agonist activity (Emax, GTPγS assay) for α2C: evaluated as active or functionally selective agonist” value is reported as “active or functionally selective agonists of the α2C receptor subtype”. For `CS(=O)(=O)CCOC(=O)Nc1ccc2c(c1)N(Cc1c[nH]cn1)CCO2` [Compound 250], the “Efficacy agonist activity (Emax, GTPγS assay) for α2C: evaluated as active or functionally selective agonist” value was “active or functionally selective agonists of the α2C receptor subtype”. For `CCN(C(=O)C#CC1CC1)c1ccc2c(c1)N(Cc1c[nH]cn1)CCO2` [Compound 251], the “Efficacy agonist activity (Emax, GTPγS assay) for α2C: evaluated as active or functionally selective agonist” value was “active or functionally selective agonists of the α2C receptor subtype”. For `N#Cc1cc(Cl)c2c(c1)N(Cc1c[nH]cn1)CCO2` [Compound 253], the “Efficacy agonist activity (Emax, GTPγS assay) for α2C: evaluated as active or functionally selective agonist” value was “active or functionally selective agonists of the α2C receptor subtype”. `CCCCOC(=O)N(C)c1ccc2c(c1)N(Cc1c[nH]cn1)CCO2` [Compound 256] was tested, and the “Efficacy agonist activity (Emax, GTPγS assay) for α2C: evaluated as active or functionally selective agonist” value was “active or functionally selective agonists of the α2C receptor subtype”. In the case of `CCCOC(=O)N(C)c1ccc2c(c1)N(Cc1c[nH]cn1)CCO2` [Compound 257], the “Efficacy agonist activity (Emax, GTPγS assay) for α2C: evaluated as active or functionally selective agonist” value is reported as “active or functionally selective agonists of the α2C receptor subtype”. For `CN(C(=O)CCCOc1ccccc1)c1ccc2c(c1)N(Cc1c[nH]cn1)CCO2` [Compound 259], the “Efficacy agonist activity (Emax, GTPγS assay) for α2C: evaluated as active or functionally selective agonist” value was “active or functionally selective agonists of the α2C receptor subtype”. With `COCCOCC(=O)N(C)c1ccc2c(c1)N(Cc1c[nH]cn1)CCO2` [Compound 260] the “Efficacy agonist activity (Emax, GTPγS assay) for α2C: evaluated as active or functionally selective agonist” value was “active or functionally selective agonists of the α2C receptor subtype”. `CC#CCOC(=O)N(C)c1ccc2c(c1)N(Cc1c[nH]cn1)CCO2` [Compound 262] was tested, and the “Efficacy agonist activity (Emax, GTPγS assay) for α2C: evaluated as active or functionally selective agonist” value was “active or functionally selective agonists of the α2C receptor subtype”. `CCCCCCOC(=O)N(C)c1ccc2c(c1)N(Cc1c[nH]cn1)CCO2` [Compound 263] was tested, and the “Efficacy agonist activity (Emax, GTPγS assay) for α2C: evaluated as active or functionally selective agonist” value was “active or functionally selective agonists of the α2C receptor subtype”. In the case of `CCCOC(=O)N(CC)c1ccc2c(c1)N(Cc1c[nH]cn1)CCO2` [Compound 264], the “Efficacy agonist activity (Emax, GTPγS assay) for α2C: evaluated as active or functionally selective agonist” value is reported as “active or functionally selective agonists of the α2C receptor subtype”. In the case of `CCCCOC(=O)N(CC)c1ccc2c(c1)N(Cc1c[nH]cn1)CCO2` [Compound 265], the “Efficacy agonist activity (Emax, GTPγS assay) for α2C: evaluated as active or functionally selective agonist” value is reported as “active or functionally selective agonists of the α2C receptor subtype”. With `C=CCS(=O)(=O)Nc1ccc2c(c1)N(Cc1c[nH]cn1)CCO2` [Compound 266] the “Efficacy agonist activity (Emax, GTPγS assay) for α2C: evaluated as active or functionally selective agonist” value was “active or functionally selective agonists of the α2C receptor subtype”. In the case of `CCCOC(=O)Nc1ccc2c(c1)N(Cc1c[nH]cn1)CCO2` [Compound 271], the “Efficacy agonist activity (Emax, GTPγS assay) for α2C: evaluated as active or functionally selective agonist” value is reported as “active or functionally selective agonists of the α2C receptor subtype”.
